# Data from US7511119B2, “PRAME peptide analogues” (MannKind Corporation, priority 2005, dated 2009).
# Entries after “also recorded” stand apart in the source; their conditions may differ. Square brackets hold non-standard residues; d marks the D form. Ends that are not written are not given here. Nle = CCCC[C@H](N)C(=O)O; Nva = CCC[C@H](N)C(=O)O
# What was measured:
# [1] = biological target: A0201 restricted MHC Class 1 molecules (Homo sapiens, UniProt P04439, D140Y/D185E/D98H/E176V/E277Q/G131W/G231S/I119V/I121R/I166T/I218V/N151K/N90K/P208A/P217A/Q86G/Q94H/R138H/R169H); experiment: iTopia off-rate assay (T1/2); assay type: binding; conditions: compared with the respective native peptide
# Protocol: Avidin-coated microtiter plates containing class I monomer loaded with a so-called placeholder peptide were used to evaluate peptide binding, affinity and off-rate. […] Assay buffers, anti-MHC-FITC mAb and beta2-microglobulin and control peptides were also supplied with the kits.
# The plates were then incubated on the allele-specific monomer plates at 37° C. The plates were measured at multiple time points (0, 0.5, 1, 1.5, 2, 4, 6 and 8 hrs) for relative fluorescence intensity. The time required for 50% of the peptide to dissociate from the MHC monomer is defined as the T1/2 value (hrs).
# The binding and offrate (T1/2) was determined for six native epitopes and their analogs which were designed to enhance the immune response.
# [2] = test system: T cell line specific for the native epitope PRAME425-433; experiment: Cross-reactivity of PRAME425-433 analogs: IFN-gamma secretion from T cell line specific for native epitope; assay type: cell-based; conditions: analog peptide at approximately 0.3 μM; normalized to native PRAME425-433
# Protocol: The analogs listed in FIGS. 26-28 were tested for various properties such as improved affinity and stability of binding, cross-reactivity with the native epitope, and immunogenicity as follows in Examples 40-48. […] The observed affinities of the analogs are reported as % binding (compared to the positive control) and ED50, and stability of binding as half time of dissociation. Cross reactivity with the native epitope was assessed by using the analog peptides to stimulate IFN-gamma secretion from a T cell line specific for the native epitope, essentially as described in Example 6. The data shown in FIGS. 26-28 were generated by stimulating with analog peptide at approximately 0.3 μM. […] In some cases, the reported values are the average of two determinations.
# 624.38 melanoma cells = experiment: Ex vivo cytotoxicity against PRAME+ A2+ human tumor cells; assay type: in vivo; conditions: splenocytes restimulated ex vivo with native PRAME peptide
# Protocol: (§1) This was followed by two peptide boosts (2.5 μg) at day 28 and 31, with the analog L426Nva L433Nle.
# [3] = test system: PRAME425-433-specific T cells; experiment: Tetramer/CD8 co-staining of PRAME425-433-specific T cells; assay type: in vivo, HHD transgenic mice; conditions: versus boost with negative control peptide; FIG. 31
# PRAME425-433 peptide = experiment: IFN-gamma ELISA of splenocytes after pCTLR2 prime and peptide boost; assay type: in vivo, HHD transgenic mice; conditions: pCTLR2 prime, 2.5 μg peptide boost; versus native peptide boost; FIG. 29
# [4] = test system: native peptide loaded splenocytes; experiment: In vivo cytotoxicity against native PRAME peptide-loaded splenocytes (CFSE); parameters: species or system HHD transgenic mice; conditions: pCTLR2 prime, peptide boost; FIGS. 30-31
# HLA-A*0201 = HLA-A*0201 (Homo sapiens, UniProt P04439, D140Y/D185E/D98H/E176V/E277Q/G131W/G231S/I119V/I121R/I166T/I218V/L300P/L318F/N151K/N90K/P208A/P217A/Q86G/Q94H/R138H/R169H/T345S); experiment: iTopia affinity assay (ED50); assay type: binding; conditions: compared with the respective native peptide
# Description: Avidin-coated microtiter plates containing class I monomer loaded with a so-called placeholder peptide were used to evaluate peptide binding, affinity and off-rate. The monomer-coated plates were supplied as part of the iTopia Epitope Discovery System Kit (Beckman Coulter, Inc., San Diego, Calif., USA). Assay buffers, anti-MHC-FITC mAb and beta2-microglobulin and control peptides were also supplied with the kits.
# Plates were read on the fluorometer. Sigmoidal dose response curves were generated using Prism software.
# A2-624.28 control cells = experiment: Ex vivo cytotoxicity against A2-negative control cells; assay type: in vivo; conditions: same effector cells as for 624.38
# Protocol: as §1
# splenocytes = experiment: Ex vivo cytokine production (IFN-gamma ELISA) after boost with PRAME analogs; assay type: in vivo, HHD transgenic mice; conditions: 10 μg/ml native peptide, 48 hours; FIG. 32
substance,measurement,setting,value
"S{Nva}LQHLIG{Nle} (S[Nva]LQHLIG[Nle]) [Prame 425-433 (L426Nva, L433Nle)]","stability of binding (half-time of dissociation), in words",[1],Significant increase in the stability
same,"IFN-γ production (cross-reactivity), in words",[2],significant level of cross-recativity
same,cytotoxicity against 624.38 human tumor cells,624.38 melanoma cells,significant cytotoxicity
same,expansion of T cells specific against the native epitope (tetramer staining),[3],significantly higher
same,IFN-γ production in response to PRAME425-433 peptide (ELISA),PRAME425-433 peptide,significant enhancement of IFN-γ production
same,"in vivo cytotoxicity against native epitope, in words",[4],preserved induction of cytotoxicity; also recorded: capable of expanding the immunity against the native epitope
same,"binding affinity (ED50) / binding characteristics, in words",HLA-A*0201,"similar, somewhat improved binding characteristics"
same,cytotoxicity against A2-negative control cells,A2-624.28 control cells,no significant activity
same,ex vivo cytokine production (IFN-γ) by splenocytes,splenocytes,greater response
